Where a SMILES comes first, the peptide text is derived from it. [ ]: non-standard residue; d: D form. The star is where a group is joined. Myristoyl = CCCCCCCCCCCCCC(=O)*; Orn = NCCC[C@H](N)C(=O)O
Columns and labels:
[1] = system: CD44^hiCD24^lo CSCs in MDA-MB-231 cells; experiment: FACS analysis of CD44^hiCD24^lo cancer stem cells in MDA-MB-231 cells treated with P1 analogues; format: cell-based, human; conditions: 50 μM peptide, 48 hours; for CD44^hiCD24^lo CSCs (%) / COI, Live Single CD44^hiCD24^lo CSCs (Cell Count): n = 1; for Average Inhibition of CSCs (%) / CD44^hiCD24^lo CSCs (%) Repeat 1 / CD44^hiCD24^lo CSCs (%) Repeat 2 / CD44^hiCD24^lo CSCs (%) Repeat 3: n = 3
Description: Analogues of P1 (Table 6) were designed and synthesized in accordance with the procedure of Example 5. The ability of these analogues to inhibit cancer stem cells was determined using FACS analysis on MDA-MB-231 cells, which constitutively contain approximately 90% CD44^hiCD24^lo cancer stem cells, treated with the peptides.
(§1) Non-adherent cells were removed during the washing steps.

[2] = system: MDA-MB-231 cells; format: cell-based, human; conditions: 50 μM peptide, 48 hours, n = 1;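 as to COI, Live Single Cells (Cell Count): live means Hoechst-negative events among single cells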
From the text: as §1

| Structure (SMILES) | Inhibition of CSCs (%) Repeat 1 [1] [%] | Inhibition of CSCs (%) Repeat 2 [1] [%] | Inhibition of CSCs (%) Repeat 3 [1] [%] | CD44^hiCD24^lo CSCs (%) [1] [%] | COI, Live Single CD44^hiCD24^lo CSCs (Cell Count) [1] | Average Inhibition of CSCs (%) [1] [%] | CD44^hiCD24^lo CSCs (%) Repeat 1 [1] [%] | CD44^hiCD24^lo CSCs (%) Repeat 2 [1] [%] | CD44^hiCD24^lo CSCs (%) Repeat 3 [1] [%] | COI (Cell Count) [2] | COI, Live Single Cells (Cell Count) [2] | COI, Single (Cell Count) [2] | Total Cell Count [2] |
| --- | --- | --- | --- | --- | --- | --- | --- | --- | --- | --- | --- | --- | --- |
| CCCCCCCCCCCCCC(=O)N[C@@H](CC(C)C)C(=O)N[C@H](C(=O)N[C@@H](Cc1ccccc1)C(=O)N[C@H](C(=O)N[C@@H](Cc1ccccc1)C(=O)N[C@@H](CCCNC(=N)N)C(=O)N[C@@H](CC(C)C)C(=O)N[C@@H](CCCCN)C(=O)N[C@@H](CCCCN)C(=O)NCC(=O)N[C@@H](CCCNC(=N)N)C(=O)N[C@@H](CCSC)C(=O)N[C@@H](CCSC)C(=O)N[C@@H](CC(=O)O)C(=O)N[C@H](C(=O)N[C@@H](CCCCN)C(=O)N[C@@H](CCCCN)C(N)=O)C(C)C)[C@@H](C)CC)[C@@H](C)O [Peptide 2853824, Myristoyl-LTFIFRLKKGRMMDVKK-NH2] (Myristoyl-LTFIFRLKKGRMMDVKK-NH2) | 77.86 | 79.50 | 76.91 | 16.54 | 619 | 78.09 | 19.85 | 18.39 | 20.72 | 4232 | 3743 | 3768 | 5455 |
| CCCCCCCCCCCCCC(=O)N[C@@H](CC(C)C)C(=O)N[C@H](C(=O)N[C@@H](Cc1ccccc1)C(=O)N[C@H](C(=O)N[C@@H](Cc1ccccc1)C(=O)N[C@@H](CCCNC(=N)N)C(=O)N[C@@H](CC(C)C)C(=O)N[C@@H](CCCNC(=N)N)C(=O)N[C@@H](CCCNC(C)=O)C(=O)NCC(=O)N[C@@H](CCCNC(=N)N)C(=O)N[C@@H](CCSC)C(=O)N[C@@H](CCSC)C(=O)N[C@@H](CC(=O)O)C(=O)N[C@H](C(=O)N[C@@H](CCCCN)C(=O)N[C@@H](CCCCN)C(N)=O)C(C)C)[C@@H](C)CC)[C@@H](C)O [Peptide 2853826, Myristoyl-LTFIFRLROrn(Ac)GRMMDVKK-NH2] (Myristoyl-LTFIFRLR[Orn](Ac)GRMMDVKK-NH2) | 86.74 | 80.33 | 87.62 | 3.13 | 5 | 84.90 | 11.88 | 17.65 | 11.11 | 554 | 160 | 433 | 3961 |
| CCCCCCCCCCCCCC(=O)N[C@@H](CC(C)C)C(=O)N[C@H](C(=O)N[C@@H](Cc1ccccc1)C(=O)N[C@H](C(=O)N[C@@H](Cc1ccccc1)C(=O)N[C@@H](CCCNC(=N)N)C(=O)N[C@@H](CC(C)C)C(=O)N[C@@H](CCCNC(=N)N)C(=O)N[C@@H](CCCCN)C(=O)N[C@@H](CC(=O)O)C(=O)N[C@@H](CCCNC(=N)N)C(=O)N[C@@H](CCSC)C(=O)N[C@@H](CCSC)C(=O)N[C@@H](CC(=O)O)C(=O)N[C@H](C(=O)N[C@@H](CCCCN)C(=O)N[C@@H](CCCCN)C(N)=O)C(C)C)[C@@H](C)CC)[C@@H](C)O [Peptide 2853827, Myristoyl-LTFIFRLRKDRMMDVKK-NH2] (Myristoyl-LTFIFRLRKDRMMDVKK-NH2) | 95.44 | 91.08 | 89.47 | 1.64 | 1 | 92.00 | 4.09 | 8.00 | 9.45 | 170 | 61 | 110 | 4681 |
| CCCCCCCCCCCCCC(=O)N[C@@H](CC(C)C)C(=O)N[C@H](C(=O)N[C@@H](Cc1ccccc1)C(=O)N[C@H](C(=O)N[C@@H](Cc1ccccc1)C(=O)N[C@@H](CCCNC(=N)N)C(=O)N[C@@H](CC(C)C)C(=O)N[C@@H](CCCNC(=N)N)C(=O)N[C@@H](CCCCN)C(=O)N[C@@H](CCCCN)C(=O)N[C@@H](CCCNC(=N)N)C(=O)N[C@@H](CCSC)C(=O)N[C@@H](CCSC)C(=O)N[C@@H](CC(=O)O)C(=O)N[C@H](C(=O)N[C@@H](CCCCN)C(=O)N[C@@H](CCCCN)C(N)=O)C(C)C)[C@@H](C)CC)[C@@H](C)O [Peptide 2853828, Myristoyl-LTFIFRLRKKRMMDVKK-NH2] (Myristoyl-LTFIFRLRKKRMMDVKK-NH2) | 89.25 | 91.29 | 90.17 | 10.71 | 3 | 90.23 | 9.64 | 7.81 | 8.82 | 182 | 28 | 146 | 3309 |
| CCCCCCCCCCCCCC(=O)N[C@@H](CC(C)C)C(=O)N[C@H](C(=O)N[C@@H](Cc1ccccc1)C(=O)N[C@H](C(=O)N[C@@H](Cc1ccccc1)C(=O)N[C@@H](CCCNC(=N)N)C(=O)N[C@@H](CC(C)C)C(=O)N[C@@H](CCCNC(=N)N)C(=O)N[C@@H](CCCCN)C(=O)N[C@H](C(=O)N[C@@H](CCCNC(=N)N)C(=O)N[C@@H](CCSC)C(=O)N[C@@H](CCSC)C(=O)N[C@@H](CC(=O)O)C(=O)N[C@H](C(=O)N[C@@H](CCCCN)C(=O)N[C@@H](CCCCN)C(N)=O)C(C)C)C(C)C)[C@@H](C)CC)[C@@H](C)O [Peptide 2853829, Myristoyl-LTFIFRLRKVRMMDVKK-NH2] (Myristoyl-LTFIFRLRKVRMMDVKK-NH2) | 89.50 | 91.73 | 94.67 | 5.88 | 4 | 91.97 | 9.41 | 7.42 | 4.79 | 167 | 68 | 131 | 10000 |
| CCCCCCCCCCCCCC(=O)N[C@@H](CC(C)C)C(=O)N[C@H](C(=O)N[C@@H](Cc1ccccc1)C(=O)N[C@H](C(=O)N[C@@H](Cc1ccccc1)C(=O)N[C@@H](CCCNC(=N)N)C(=O)N[C@@H](CC(C)C)C(=O)N[C@@H](CCCNC(=N)N)C(=O)N[C@@H](CCCCN)C(=O)NCC(=O)N[C@@H](CCC(=O)O)C(=O)N[C@@H](CCSC)C(=O)N[C@@H](CCSC)C(=O)N[C@@H](CC(=O)O)C(=O)N[C@H](C(=O)N[C@@H](CCCCN)C(=O)N[C@@H](CCCCN)C(N)=O)C(C)C)[C@@H](C)CC)[C@@H](C)O [Peptide 2853830, Myristoyl-LTFIFRLRKGEMMDVKK-NH2] (Myristoyl-LTFIFRLRKGEMMDVKK-NH2) | 45.65 | 53.16 | 55.12 | 29.21 | 1312 | 51.31 | 48.71 | 42.02 | 40.27 | 5072 | 4491 | 4600 | 8489 |
| CCCCCCCCCCCCCC(=O)N[C@@H](CC(C)C)C(=O)N[C@H](C(=O)N[C@@H](Cc1ccccc1)C(=O)N[C@H](C(=O)N[C@@H](Cc1ccccc1)C(=O)N[C@@H](CCCNC(=N)N)C(=O)N[C@@H](CC(C)C)C(=O)N[C@@H](CCCNC(=N)N)C(=O)N[C@@H](CCCCN)C(=O)NCC(=O)N[C@H](C(=O)N[C@@H](CCSC)C(=O)N[C@@H](CCSC)C(=O)N[C@@H](CC(=O)O)C(=O)N[C@H](C(=O)N[C@@H](CCCCN)C(=O)N[C@@H](CCCCN)C(N)=O)C(C)C)C(C)C)[C@@H](C)CC)[C@@H](C)O [Peptide 2853831, Myristoyl-LTFIFRLRKGVMMDVKK-NH2] (Myristoyl-LTFIFRLRKGVMMDVKK-NH2) | 79.77 | 84.29 | 89.06 | 11.83 | 11 | 84.37 | 18.13 | 14.09 | 9.82 | 377 | 93 | 280 | 10000 |
| CCCCCCCCCCCCCC(=O)N[C@@H](CC(C)C)C(=O)N[C@H](C(=O)N[C@@H](Cc1ccccc1)C(=O)N[C@H](C(=O)N[C@@H](Cc1ccccc1)C(=O)N[C@@H](CCCNC(=N)N)C(=O)N[C@@H](CC(C)C)C(=O)N[C@@H](CCCNC(=N)N)C(=O)N[C@@H](CCCCN)C(=O)NCC(=O)N[C@@H](CCCNC(=N)N)C(=O)N[C@@H](CCC(=O)O)C(=O)N[C@@H](CCSC)C(=O)N[C@@H](CC(=O)O)C(=O)N[C@H](C(=O)N[C@@H](CCCCN)C(=O)N[C@@H](CCCCN)C(N)=O)C(C)C)[C@@H](C)CC)[C@@H](C)O [Peptide 2853832, Myristoyl-LTFIFRLRKGREMDVKK-NH2] (Myristoyl-LTFIFRLRKGREMDVKK-NH2) | 93.78 | 94.44 | 94.90 | 2.48 | 11 | 94.37 | 5.58 | 4.99 | 4.58 | 674 | 444 | 515 | 2068 |
